Reference: patent publication US9981975B2, “Pyrrolotriazine compounds as tam inhibitors” (Incyte Corporation, priority 2016, dated 2018)

Columns and labels:
Type in all cases: biochemical
phosphor-Axl = phosphor-Axl (Homo sapiens (Human), UniProt P30530); experiment: TAM Enzymatic Assay (HTRF), Axl; settings: recombinant autophosphorylated Axl, 60 min, room temperature
Tyro3 = Tyro3 (Homo sapiens (Human), UniProt Q06418); experiment: TAM Enzymatic Assay (HTRF), Tyro3; settings: Tyro3, 60 min, room temperature
Tyro3, sequence (Q06418 41-890): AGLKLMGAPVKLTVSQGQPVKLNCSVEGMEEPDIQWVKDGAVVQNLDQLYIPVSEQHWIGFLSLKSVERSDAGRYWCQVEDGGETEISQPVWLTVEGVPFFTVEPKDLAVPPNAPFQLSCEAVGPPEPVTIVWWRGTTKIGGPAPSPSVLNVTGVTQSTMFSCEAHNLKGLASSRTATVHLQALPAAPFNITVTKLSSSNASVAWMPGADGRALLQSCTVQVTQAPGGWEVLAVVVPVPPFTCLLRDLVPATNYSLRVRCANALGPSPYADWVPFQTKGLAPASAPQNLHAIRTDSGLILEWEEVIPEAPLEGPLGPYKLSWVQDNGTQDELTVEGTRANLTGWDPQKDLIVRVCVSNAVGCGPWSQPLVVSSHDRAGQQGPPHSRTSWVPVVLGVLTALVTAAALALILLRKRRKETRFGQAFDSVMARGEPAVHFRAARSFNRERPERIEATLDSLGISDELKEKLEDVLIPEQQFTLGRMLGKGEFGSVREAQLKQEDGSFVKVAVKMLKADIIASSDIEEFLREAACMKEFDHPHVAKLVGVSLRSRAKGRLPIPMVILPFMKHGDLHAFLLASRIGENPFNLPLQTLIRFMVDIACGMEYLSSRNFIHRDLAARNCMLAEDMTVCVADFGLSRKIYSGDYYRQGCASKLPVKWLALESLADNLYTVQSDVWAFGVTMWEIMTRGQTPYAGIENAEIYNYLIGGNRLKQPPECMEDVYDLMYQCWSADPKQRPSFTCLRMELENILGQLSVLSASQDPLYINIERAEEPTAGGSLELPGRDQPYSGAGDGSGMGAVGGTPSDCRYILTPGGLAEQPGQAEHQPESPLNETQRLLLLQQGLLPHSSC
Outline: (§1)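 Reactions ran 60 min at room temperature, protected from light, started by substrate addition to enzyme plus DMSO compound, in pH 7.5 HEPES buffer with 10 mM MgCl2, 1 mM EGTA, 0.01% NP-40, 2 mM DTT.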

c-Mer = c-Mer (Homo sapiens (Human), UniProt Q12866); experiment: TAM Enzymatic Assay (HTRF), Mer; settings: 60 min, room temperature
c-Mer, sequence (Q12866 21-999): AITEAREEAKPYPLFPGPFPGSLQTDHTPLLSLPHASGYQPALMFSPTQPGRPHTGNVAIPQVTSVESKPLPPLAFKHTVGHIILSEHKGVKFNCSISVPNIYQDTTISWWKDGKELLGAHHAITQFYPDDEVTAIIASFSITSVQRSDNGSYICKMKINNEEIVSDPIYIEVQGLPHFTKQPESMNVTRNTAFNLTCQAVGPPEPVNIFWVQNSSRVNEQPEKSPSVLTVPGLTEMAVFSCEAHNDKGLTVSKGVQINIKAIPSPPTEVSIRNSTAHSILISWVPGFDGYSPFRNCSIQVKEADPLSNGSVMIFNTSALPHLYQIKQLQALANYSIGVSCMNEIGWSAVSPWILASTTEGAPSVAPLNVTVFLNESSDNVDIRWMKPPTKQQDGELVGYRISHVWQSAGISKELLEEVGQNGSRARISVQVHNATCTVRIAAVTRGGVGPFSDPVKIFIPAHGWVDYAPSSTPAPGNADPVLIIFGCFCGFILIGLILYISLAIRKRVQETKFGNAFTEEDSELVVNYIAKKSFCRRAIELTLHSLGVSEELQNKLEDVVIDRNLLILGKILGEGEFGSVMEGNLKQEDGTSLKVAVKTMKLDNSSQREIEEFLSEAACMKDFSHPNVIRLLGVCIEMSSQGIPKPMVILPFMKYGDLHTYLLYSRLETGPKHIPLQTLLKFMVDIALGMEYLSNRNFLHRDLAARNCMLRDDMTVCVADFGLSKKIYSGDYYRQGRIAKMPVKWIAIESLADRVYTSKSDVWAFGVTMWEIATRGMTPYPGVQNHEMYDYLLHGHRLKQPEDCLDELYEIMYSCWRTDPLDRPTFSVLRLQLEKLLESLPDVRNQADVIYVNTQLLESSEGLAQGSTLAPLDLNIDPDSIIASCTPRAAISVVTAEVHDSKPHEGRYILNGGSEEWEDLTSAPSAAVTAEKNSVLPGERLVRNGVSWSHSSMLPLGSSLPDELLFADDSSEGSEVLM
Outline: as §1

phosphor-Axl, sequence (P30530 26-894): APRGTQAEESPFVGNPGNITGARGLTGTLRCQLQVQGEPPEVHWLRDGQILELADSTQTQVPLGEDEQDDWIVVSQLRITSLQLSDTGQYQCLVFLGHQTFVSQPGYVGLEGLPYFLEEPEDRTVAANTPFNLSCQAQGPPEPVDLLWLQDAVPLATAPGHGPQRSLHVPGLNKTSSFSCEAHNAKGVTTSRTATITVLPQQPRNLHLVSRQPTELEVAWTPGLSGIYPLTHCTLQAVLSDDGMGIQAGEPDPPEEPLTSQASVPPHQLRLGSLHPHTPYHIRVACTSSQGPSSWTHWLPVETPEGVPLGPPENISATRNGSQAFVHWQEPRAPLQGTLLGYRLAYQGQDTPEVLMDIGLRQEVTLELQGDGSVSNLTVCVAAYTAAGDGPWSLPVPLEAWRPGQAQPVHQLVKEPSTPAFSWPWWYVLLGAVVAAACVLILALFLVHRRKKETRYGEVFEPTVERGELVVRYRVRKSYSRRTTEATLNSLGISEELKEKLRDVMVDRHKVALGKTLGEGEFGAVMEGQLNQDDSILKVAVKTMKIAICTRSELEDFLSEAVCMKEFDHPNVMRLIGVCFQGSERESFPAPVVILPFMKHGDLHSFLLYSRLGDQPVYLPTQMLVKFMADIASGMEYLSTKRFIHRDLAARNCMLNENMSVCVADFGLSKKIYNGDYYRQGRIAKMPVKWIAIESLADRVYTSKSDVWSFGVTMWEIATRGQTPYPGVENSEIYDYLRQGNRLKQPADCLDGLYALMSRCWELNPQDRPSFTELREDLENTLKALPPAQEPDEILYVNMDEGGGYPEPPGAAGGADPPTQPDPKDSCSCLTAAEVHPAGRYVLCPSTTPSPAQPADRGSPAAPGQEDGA

| IC50 (phosphor-Axl) | IC50 (Tyro3) | IC50 (c-Mer) | Compound |
| --- | --- | --- | --- |
| ≤ 5 nM | > 100 nM | ≤ 5 nM | CC(C)C(=O)N1CCC(c2cc(-c3ccc(NC(=O)c4cc(C#C[C@H](C)O)cn(-c5ccccc5)c4=O)cc3)c3c(N)ncnn23)CC1 [Example 120, (S)—N-(4-(4-Amino-7-(1-isobutyrylpiperidin-4-yl)pyrrolo[2,1-f][1,2,4]triazin-5-yl)phenyl)-5-(3-hydroxybut-1-yn-1-yl)-2-oxo-1-phenyl-1,2-dihydropyridine-3-carboxamide] |
| ≤ 5 nM | > 100 nM | ≤ 5 nM | Cc1cc(C(=O)Nc2ccc(-c3cc(C4CCN(C(=O)C(C)C)CC4)n4ncnc(N)c34)cc2)c(=O)n(-c2cncc(F)c2)c1C [Example 121, N-(4-(4-Amino-7-(1-isobutyrylpiperidin-4-yl)pyrrolo[2,1-f][1,2,4]triazin-5-yl)phenyl)-5′-fluoro-5,6-dimethyl-2-oxo-2H-[1,3′-bipyridine]-3-carboxamide] |
| ≤ 5 nM | > 100 nM | ≤ 5 nM | Cc1c(CC#N)cc(C(=O)Nc2ccc(-c3cc(C4CCN(C(=O)C(C)C)CC4)n4ncnc(N)c34)cc2)c(=O)n1-c1ccccn1 [Example 122, N-(4-(4-Amino-7-(1-isobutyrylpiperidin-4-yl)pyrrolo[1,2-f][1,2,4]triazin-5-yl)phenyl)-5-(cyanomethyl)-6-methyl-2-oxo-1-(pyridin-2-yl)-1,2-dihydropyridine-3-carboxamide] |
| ≤ 5 nM | > 100 nM | ≤ 5 nM | Cc1c(-c2ccn(C)n2)cc(C(=O)Nc2ccc(-c3cc(C4CCN(C(=O)C(C)C)CC4)n4ncnc(N)c34)cc2)c(=O)n1-c1ccccn1 [Example 125, N-(4-(4-Amino-7-(1-isobutyrylpiperidin-4-yl)pyrrolo[2,1-f][1,2,4]triazin-5-yl)phenyl)-6-methyl-5-(1-methyl-1H-pyrazol-3-yl)-2-oxo-2H-[1,2′-bipyridine]-3-carboxamide] |

The next lines start with the molecule.

| Compound | IC50 (phosphor-Axl) | IC50 (Tyro3) | IC50 (c-Mer) |
| --- | --- | --- | --- |
| CC(C)C(=O)N1CCC(c2cc(-c3ccc(NC(=O)c4cc5c(n(-c6cccnc6)c4=O)CC(C)(C)CC5=O)cc3)c3c(N)ncnn23)CC1 [Example 114, N-(4-(4-Amino-7-(1-isobutyrylpiperidin-4-yl)pyrrolo[1,2-f][1,2,4]triazin-5-yl)phenyl)-7,7-dimethyl-2,5-dioxo-1-(pyridin-3-yl)-1,2,5,6,7,8-hexahydroquinoline-3-carboxamide] | ≤ 5 nM | 10 to 100 nM | ≤ 5 nM |
| CC(C)C(=O)N1CCC(c2cc(-c3ccc(NC(=O)c4cnc(-c5cccnc5)n(-c5ccccc5)c4=O)cc3)c3c(N)ncnn23)CC1 [Example 116, N-{4-[4-Amino-7-(1-isobutyrylpiperidin-4-yl)pyrrolo[2,1-f][1,2,4]triazin-5-yl]phenyl}-6-oxo-1-phenyl-2-pyridin-3-yl-1,6-dihydropyrimidine-5-carboxamide] | ≤ 5 nM | 10 to 100 nM | ≤ 5 nM |
| Cc1c(Br)cc(C(=O)Nc2ccc(-c3cc(C4CCN(C(=O)C(C)C)CC4)n4ncnc(N)c34)cc2)c(=O)n1-c1ccccn1 [Example 118, N-(4-(4-Amino-7-(1-isobutyrylpiperidin-4-yl)pyrrolo[2,1-f][1,2,4]triazin-5-yl)phenyl)-5-bromo-6-methyl-2-oxo-2H-[1,2′-bipyridine]-3-carboxamide] | ≤ 5 nM | > 100 nM | ≤ 5 nM |
| Cc1c(-c2ncco2)c(=O)c(C(=O)Nc2ccc(-c3cc(C4CCN(C(=O)C(C)C)CC4)n4ncnc(N)c34)cc2)cn1C1CC1 [Example 119, N-(4-(4-Amino-7-(1-isobutyrylpiperidin-4-yl)pyrrolo[2,1-f][1,2,4]triazin-5-yl)phenyl)-1-cyclopropyl-6-methyl-5-(oxazol-2-yl)-4-oxo-1,4-dihydropyridine-3-carboxamide] | ≤ 5 nM | > 100 nM | ≤ 5 nM |
